How the values were obtained:
SNU-389 cells = assay: Antiproliferation assay SNU-389 (Assay 7); type: cell-based; conditions: 72 h, CellTiter-Glo; read-out: Antiproli SNU-389 IC50
Method: (§1) Assessment of the Anti-Proliferative Effect of Compounds in Different Cell Lines
(§2) The impact of compounds on the proliferation of different cell lines was assessed using the CellTiter-Glo® Luminescent Cell Viability reagent from Promega (G7573).
(§3) In parallel, cells were plated in a reference (day 0) plate for time zero determination. Cells were incubated in a humidified incubator at 37° C. overnight.
(§4) Rim wells were excluded. The cells were incubated for 72 h hours in a humidified incubator at 37° C. The day 0 plate was measured by adding 30 μL/well of CTG solution (CellTiter-Glo® Luminescent Cell Viability reagent, Promega G7573) to time zero wells in the reference plate followed by a 10 minutes incubation and luminescence reading at 0.1 ms. using the PHERAstar FS microplate reader (BMG Labtech).
(§5) After 72 h incubation, the treated plates were measured in the same way as the day 0 plate mentioned above. The Bella DRC Master Sheet was used to calculate IC50s, with CI=day 0 values and C0=DMSO control values.

A2780 cells = assay: Antiproliferation assay A2780 (Assay 7); type: cell-based; conditions: 72 h, CellTiter-Glo; read-out: Antiproli A2780 IC50 median
Method: as §1, §2, §3, §4, §5

MV-4-11 cells = assay: Antiproliferation assay MV-4-11 (Assay 7); type: cell-based; conditions: 72 h, CellTiter-Glo; read-out: Antiproli MV-4-11 IC50 median
Method: as §1, §2, §3, §4, §5

REC-1 cells = assay: Antiproliferation assay REC-1 (Assay 7); type: cell-based; conditions: 72 h, CellTiter-Glo; read-out: Antiproli REC-1 IC50
Method: as §1, §2, §3, §4, §5

AMO-1 cells = assay: Antiproliferation assay AMO-1 (Assay 7); type: cell-based; conditions: 72 h, CellTiter-Glo; read-out: Antiproli AMO-1 IC50 median
Procedure, shortened: (§6)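 After overnight attachment at 37 °C, cells received compound for 72 h in a humidified incubator. Viability was read by CellTiter-Glo luminescence. A separate day 0 plate defined starting cell number for IC50 fitting against DMSO controls.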

NCI-H23 cells = assay: Antiproliferation assay NCI-H23 (Assay 7); type: cell-based; conditions: 72 h, CellTiter-Glo; read-out: Antiproli NCI-H23 IC50
Method: as §1, §2, §3, §4, §5

A2058 cells = assay: Antiproliferation assay A2058 (Assay 7); type: cell-based; conditions: 72 h, CellTiter-Glo; read-out: Antiproli A2058 IC50
Method: as §1, §2, §3, §4, §5

HMC-1-8 cells = assay: Antiproliferation assay HMC-1-8 (Assay 7); type: cell-based; conditions: 72 h, CellTiter-Glo; read-out: Antiproli HMC-1-8 IC50 median
Procedure, shortened: as §6

SK-BR-3 cells = assay: Antiproliferation assay SK-BR-3 (Assay 7); type: cell-based; conditions: 72 h, CellTiter-Glo; read-out: Antiproli SK-BR-3 IC50 median
Method: as §1, §2, §3, §4, §5

SK-MEL-2 cells = assay: Antiproliferation assay SK-MEL-2 (Assay 7); type: cell-based; conditions: 72 h, CellTiter-Glo; read-out: Antiproli SK-MEL-2 IC50 median
Method: as §1, §2, §3, §4, §5

MBP-MCL1 = MBP-MCL1 (Homo sapiens (Human), UniProt Q07820, K194A/K197A/R201A); assay: X-ray crystallographic analysis of MBP-MCL1 in complex with inhibitor; type: binding; conditions: MBP-MCL1 co-crystal structure
From the text: For clarity only the ligand non-hydrogen atoms are shown. Carbon atom C7 unambiguously features the (R)-configuration and the bound atropisomer as defined by the C4-C38 axis is the (Ra)-configuration.
The X-ray crystallographic analysis described in the MCL-1 structural analysis section infra, provides an atomic resolution view of the relative arrangement of the atoms of MBP-MCL1 in complex with example 47.

SUDHL10 cells = assay: Induction of cytotoxicity in SUDHL10 cells (Assay 6); type: cell-based; conditions: 5 h, CellTiter-Glo; read-out: Cytotox SUDHL10 IC50 (median)
Procedure, shortened: (§7)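 Overnight seeding, 37 °C; 5 h compound exposure; CellTiter-Glo, 15 min RT shake; luminescence read. No-cell medium control.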

SUDHL5 cells = assay: Induction of cytotoxicity in SUDHL5 cells (Assay 6); type: cell-based; conditions: 5 h, CellTiter-Glo; read-out: Cytotox SUDHL5 IC50 (median)
Procedure, shortened: as §7

MCL-1 = MCL-1 (Homo sapiens (Human), UniProt Q07820, K194A/K197A/R201A); assay: Protein-protein interaction assay MCL-1/Noxa BH3 peptide (MCL-1 assay, TR-FRET); type: binding; conditions: read-out: MCL-1 Assay IC50 (median)
Procedure, shortened: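 IC50 came from a 4-parameter regression of the 665/620 nm emission ratio, normalized to DMSO controls. The mix held 1 nM MBP-fused MCL-1 (residues 173-321), a biotin-Noxa BH3 tracer and compound in Tris buffer pH 7, incubated 10 min plus 1 h at 22° C., then overnight at 4° C.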

Chain of MBP-MCL1 (Q07820 whole entry, looked up, stated change not applied): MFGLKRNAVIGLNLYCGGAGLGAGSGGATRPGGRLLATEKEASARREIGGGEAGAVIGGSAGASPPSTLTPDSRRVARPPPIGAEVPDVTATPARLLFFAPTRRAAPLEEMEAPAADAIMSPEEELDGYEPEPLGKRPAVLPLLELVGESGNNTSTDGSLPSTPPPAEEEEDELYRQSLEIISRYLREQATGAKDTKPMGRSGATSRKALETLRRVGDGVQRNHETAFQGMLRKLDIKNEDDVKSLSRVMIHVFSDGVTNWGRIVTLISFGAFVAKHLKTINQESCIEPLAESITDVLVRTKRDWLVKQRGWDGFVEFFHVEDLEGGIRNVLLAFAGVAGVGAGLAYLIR
Chain of MCL-1 (Q07820 whole entry, looked up, stated change not applied, the tested form may be a part): as the sequence (Q07820 whole entry, looked up, stated change not applied) above

IC50 (SNU-389 cells) [µM] | IC50 (A2780 cells) [µM] | IC50 (MV-4-11 cells) [µM] | IC50 (NCI-H23 cells) [µM] | IC50 (SK-BR-3 cells) [µM] | IC50 (SK-MEL-2 cells) [µM] | interaction with the target MCL1 shown by X-ray structure of the complex (MBP-MCL1) | IC50 (MCL-1) [µM] | SMILES | IC50 (REC-1 cells) [µM] | IC50 (AMO-1 cells) [µM] | IC50 (A2058 cells) [µM] | IC50 (HMC-1-8 cells) [µM] | IC50 (SUDHL10 cells) [µM] | IC50 (SUDHL5 cells) [µM]
10.7 | 14.3 | 1.75 | – | – | – | – | – | Cc1c2c(nn1C)C(CCN1CCOCC1)OCCCCn1c(C(=O)O)c(CCCOc3cccc4ccccc34)c3cccc-2c31 (centres unmarked) [Example 04] | 21 | 2.56 | – | – | – | –
– | 14.4 | 1.75 | 6.98 | 7.3 | 11.6 | – | – | Cc1c2c(nn1C)C(CCN1CCOCC1)OCCCCn1c(C(=O)O)c(CCCOc3cccc4ccccc34)c3cccc-2c31 (centres unmarked) [Example 05] | – | 9.47 | 12.8 | 6.29 | – | –
– | – | – | – | – | – | clear and direct interaction | 0.00037 | CCc1c2c(nn1C)[C@@H](CCN1CCOCC1)OCCCCn1c(C(=O)O)c(CCCOc3cccc4cc(F)ccc34)c3ccc(Cl)c-2c31 [Example 47, (+)-4-chloro-3-ethyl-7-{3-[(6-fluoronaphthalen-1-yl)oxy]propyl}-2-methyl-(15R)-[2-(morpholin-4-yl)ethyl]-2,10,11,12,13,15-hexahydropyrazolo[4′,3′:9,10][1,6]oxazacycloundecino[8,7,6-hi]indole-8-carboxylic Acid] | – | – | – | – | 0.0079 | 0.0082
